Assay [1] deals with T1, human sodium channels Nav 1.8 (Homo sapiens, UniProt Q9Y5Y9).
T1 construct: expressed in transfected cells
The assay is described as follows: Automated whole-cell voltage-clamp (ScreenPatch 384P) sodium current block, Nav 1.8. Type of assay: cell-based. The following applies: CHO cells stably expressing human Nav 1.8; inactivation step -40 mV for 8 seconds, test step 10 mV (TP1A); exposure at least five minutes; room temperature; mean if two or more assays; read-out: Nav1.8 IC50. On the procedure:
(§1) Biological assays were performed on Chinese hamster ovary (CHO) cells that express human sodium channels Nav 1.8 or Nav 1.7 in a stable manner.
(§2) The experimental protocol voltage-clamp using the whole cell configuration was established on the automated ScreenPatch® 384P platform (SP384PE, Nanion Technologies, Livingston, NJ) and the results were recorded with a Nanion 384-well Patch Clamp chip (NPC) (Nanion Technologies, Livingston, NJ).
(§3) Formula I compounds were diluted in eight concentrations in the extracellular solution composed of saline saline solution, buffered with HEPES (mM): NaCl, 137; KCl, 4; CaCl2, 3,8; MgCl2, 1; HEPES, 10; Glucose, 10; pH 7.4. The […], 50; CsF, 90; MgCl2, 5; EGTA, 5; HEPES, 10; pH 7.2. The duration of exposure of each compound with cells expressing Nav 1.7 or Nav 1.8 was at least five minutes and the assays were performed at room temperature.
(§4) The measurements of the sodium currents of Nav 1.8 and Nav 1.7 were obtained using the voltage protocol described below.
(§5) A holding voltage of -100 mV was established followed by an inactivation voltage step at -40 mV for 8 seconds, followed by a step of -100 mV for 20 ms, followed by a 20 ms step for 10 mV for Nav 1.8 or 0 mV for Nav 1.7 (TP1A) before returning to the holding voltage of -100 mV.
(§6) The protocol was repeated at a frequency of 0.05 Hz and the amplitude of the current was quantified throughout the recording of the TP1A phase. The variation in the amplitude of the peak current was evaluated according to the formula described below, after exposing the cells expressing the channels to each concentration of the different compounds: % Block = (1−(ITP1A,molecule/ITP1A,basal)×100%, [formula] wherein ITP1A,basal and ITP1A,molecule represent the peaks of sodium current input into TP1A before exposure to the compound and in the presence of the compound, respectively.
(§7) Data were obtained by nonlinear regression (nonlinear least squares) with XLfit for Excel (Microsoft, Redmond, WA).
(§8) The compounds were tested in at least one assay to obtain the value of CI50. For compounds that were tested in two or more assays, the results are described as the mean of the CI50 values.

Assay [2] has as its target T2, human sodium channels Nav 1.7 (Homo sapiens, UniProt Q15858).
T2 construct: expressed in transfected cells
The assay is described as follows: Automated whole-cell voltage-clamp (ScreenPatch 384P) sodium current block, Nav 1.7. Type of assay: cell-based. The following applies: CHO cells stably expressing human Nav 1.7; inactivation step -40 mV for 8 seconds, test step 0 mV (TP1A); exposure at least five minutes; room temperature; mean if two or more assays; read-out: Nav1.7 IC50. On the procedure:
as §1, §2, §3, §4, §5, §6, §7, §8

T2 sequence (Q15858 whole entry): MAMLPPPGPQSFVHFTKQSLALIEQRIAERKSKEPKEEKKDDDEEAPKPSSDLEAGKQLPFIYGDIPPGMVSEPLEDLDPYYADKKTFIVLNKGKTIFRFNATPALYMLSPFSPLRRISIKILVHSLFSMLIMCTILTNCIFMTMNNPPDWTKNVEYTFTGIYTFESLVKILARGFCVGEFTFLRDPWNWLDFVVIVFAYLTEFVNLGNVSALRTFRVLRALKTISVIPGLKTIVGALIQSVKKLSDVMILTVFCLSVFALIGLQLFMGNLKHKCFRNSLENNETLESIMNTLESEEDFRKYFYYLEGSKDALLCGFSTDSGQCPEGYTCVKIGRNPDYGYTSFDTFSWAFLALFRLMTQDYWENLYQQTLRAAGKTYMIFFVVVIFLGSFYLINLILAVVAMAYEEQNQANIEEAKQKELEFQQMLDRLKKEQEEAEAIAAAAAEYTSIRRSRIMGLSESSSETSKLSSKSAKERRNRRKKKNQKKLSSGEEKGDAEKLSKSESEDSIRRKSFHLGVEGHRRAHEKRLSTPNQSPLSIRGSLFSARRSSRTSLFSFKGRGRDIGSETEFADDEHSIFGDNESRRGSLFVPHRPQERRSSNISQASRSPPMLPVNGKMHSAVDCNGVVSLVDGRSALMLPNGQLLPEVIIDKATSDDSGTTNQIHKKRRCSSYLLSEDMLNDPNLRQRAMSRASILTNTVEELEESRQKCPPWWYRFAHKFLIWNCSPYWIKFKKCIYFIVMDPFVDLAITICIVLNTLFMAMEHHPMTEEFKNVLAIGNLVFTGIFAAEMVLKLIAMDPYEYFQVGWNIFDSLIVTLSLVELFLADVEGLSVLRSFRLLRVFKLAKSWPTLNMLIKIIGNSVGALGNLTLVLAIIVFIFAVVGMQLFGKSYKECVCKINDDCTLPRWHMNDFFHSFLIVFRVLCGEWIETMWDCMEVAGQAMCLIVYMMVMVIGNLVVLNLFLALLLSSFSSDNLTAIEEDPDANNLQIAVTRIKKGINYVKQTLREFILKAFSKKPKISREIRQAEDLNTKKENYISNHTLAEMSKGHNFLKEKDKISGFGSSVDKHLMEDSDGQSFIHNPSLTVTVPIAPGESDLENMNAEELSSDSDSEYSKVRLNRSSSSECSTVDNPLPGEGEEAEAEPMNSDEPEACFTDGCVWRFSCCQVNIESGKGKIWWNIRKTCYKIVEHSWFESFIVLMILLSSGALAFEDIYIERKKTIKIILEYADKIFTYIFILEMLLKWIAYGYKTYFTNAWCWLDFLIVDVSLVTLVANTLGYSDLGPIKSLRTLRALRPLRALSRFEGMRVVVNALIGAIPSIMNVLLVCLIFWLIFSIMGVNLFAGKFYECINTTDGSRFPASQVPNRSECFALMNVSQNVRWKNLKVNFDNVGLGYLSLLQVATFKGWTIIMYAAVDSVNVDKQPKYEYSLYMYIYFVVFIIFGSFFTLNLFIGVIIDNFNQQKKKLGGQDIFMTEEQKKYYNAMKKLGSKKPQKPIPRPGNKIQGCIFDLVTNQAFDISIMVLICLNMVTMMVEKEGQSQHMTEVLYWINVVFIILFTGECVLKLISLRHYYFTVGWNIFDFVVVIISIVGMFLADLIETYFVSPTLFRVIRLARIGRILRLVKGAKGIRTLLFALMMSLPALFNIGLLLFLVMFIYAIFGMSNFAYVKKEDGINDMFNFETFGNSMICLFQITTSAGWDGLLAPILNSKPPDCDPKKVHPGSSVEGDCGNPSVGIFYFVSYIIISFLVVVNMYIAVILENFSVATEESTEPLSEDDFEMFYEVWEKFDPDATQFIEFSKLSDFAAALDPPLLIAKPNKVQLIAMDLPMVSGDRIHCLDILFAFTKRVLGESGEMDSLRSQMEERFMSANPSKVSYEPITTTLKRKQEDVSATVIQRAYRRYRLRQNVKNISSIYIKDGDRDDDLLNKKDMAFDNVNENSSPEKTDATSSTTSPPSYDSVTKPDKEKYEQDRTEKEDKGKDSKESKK
T1 sequence (Q9Y5Y9 whole entry): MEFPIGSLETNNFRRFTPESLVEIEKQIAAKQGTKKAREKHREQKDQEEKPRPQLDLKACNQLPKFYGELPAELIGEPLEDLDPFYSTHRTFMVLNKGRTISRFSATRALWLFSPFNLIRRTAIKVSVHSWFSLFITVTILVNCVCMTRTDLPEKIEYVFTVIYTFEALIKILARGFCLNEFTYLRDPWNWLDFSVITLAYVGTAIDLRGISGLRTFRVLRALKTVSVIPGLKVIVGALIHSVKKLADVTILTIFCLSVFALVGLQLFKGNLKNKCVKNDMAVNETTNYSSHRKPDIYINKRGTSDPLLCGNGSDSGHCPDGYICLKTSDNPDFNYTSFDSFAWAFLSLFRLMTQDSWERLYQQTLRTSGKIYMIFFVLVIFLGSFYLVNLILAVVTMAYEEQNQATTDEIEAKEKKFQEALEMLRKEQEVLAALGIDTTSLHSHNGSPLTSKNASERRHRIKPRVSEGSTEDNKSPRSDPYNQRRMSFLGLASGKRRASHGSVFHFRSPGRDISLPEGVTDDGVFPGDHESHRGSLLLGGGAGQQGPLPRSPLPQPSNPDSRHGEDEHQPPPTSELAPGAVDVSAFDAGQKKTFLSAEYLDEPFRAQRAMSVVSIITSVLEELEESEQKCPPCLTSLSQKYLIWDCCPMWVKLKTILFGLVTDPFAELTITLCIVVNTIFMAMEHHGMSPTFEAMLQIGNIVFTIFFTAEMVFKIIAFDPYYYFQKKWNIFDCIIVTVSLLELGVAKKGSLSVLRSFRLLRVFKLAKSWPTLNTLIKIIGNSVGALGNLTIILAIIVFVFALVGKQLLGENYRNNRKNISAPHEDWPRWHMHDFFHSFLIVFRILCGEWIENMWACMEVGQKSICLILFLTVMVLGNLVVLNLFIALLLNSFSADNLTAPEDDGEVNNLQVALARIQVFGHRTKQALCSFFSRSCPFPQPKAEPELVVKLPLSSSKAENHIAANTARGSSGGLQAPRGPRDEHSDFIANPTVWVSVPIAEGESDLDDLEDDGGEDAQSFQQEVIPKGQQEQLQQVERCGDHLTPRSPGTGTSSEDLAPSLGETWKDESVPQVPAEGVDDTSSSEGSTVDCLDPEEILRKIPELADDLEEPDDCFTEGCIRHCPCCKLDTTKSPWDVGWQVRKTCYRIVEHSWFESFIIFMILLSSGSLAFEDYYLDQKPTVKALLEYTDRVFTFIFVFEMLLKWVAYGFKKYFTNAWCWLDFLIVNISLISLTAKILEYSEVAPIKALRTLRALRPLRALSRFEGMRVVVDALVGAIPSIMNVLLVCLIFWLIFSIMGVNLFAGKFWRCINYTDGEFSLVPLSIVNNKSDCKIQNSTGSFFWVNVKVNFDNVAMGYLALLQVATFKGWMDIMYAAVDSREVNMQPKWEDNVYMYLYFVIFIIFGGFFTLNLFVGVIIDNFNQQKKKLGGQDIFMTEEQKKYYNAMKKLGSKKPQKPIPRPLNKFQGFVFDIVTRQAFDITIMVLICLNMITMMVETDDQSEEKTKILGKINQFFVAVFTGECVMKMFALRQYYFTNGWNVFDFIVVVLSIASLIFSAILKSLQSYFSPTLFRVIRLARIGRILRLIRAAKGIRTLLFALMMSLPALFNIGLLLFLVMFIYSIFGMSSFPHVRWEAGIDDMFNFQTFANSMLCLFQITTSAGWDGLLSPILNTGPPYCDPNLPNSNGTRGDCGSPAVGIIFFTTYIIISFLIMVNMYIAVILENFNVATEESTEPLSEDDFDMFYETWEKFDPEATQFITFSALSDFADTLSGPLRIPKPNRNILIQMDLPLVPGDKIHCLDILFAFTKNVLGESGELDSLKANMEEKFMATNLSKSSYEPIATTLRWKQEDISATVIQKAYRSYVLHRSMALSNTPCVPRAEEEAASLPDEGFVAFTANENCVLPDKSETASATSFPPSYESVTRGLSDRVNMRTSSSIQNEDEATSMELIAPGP

By IC50 is commonly meant the concentration that gives 50% inhibition. For the compound `CCOc1ccc(-c2cncc(C(=O)NOCc3[nH]ccc3C)n2)cn1` [Compound 67, 6-(6-ethoxypyridine-3-yl)-N-((3-methyl-1H-pyrrole-2-yl)methoxy)pyrazine-2-carboxamide], the concentration for half-maximal inhibition (IC50) in assay [1] is under 500 nM; in assay [2], over 1000 nM.

Regarding `CCOc1ccc(-c2nc(C(=O)NOCc3cc(OC)cc(OC)c3)cnc2O)cc1` [Compound 96], the 50% inhibitory concentration (IC50) in assay [1] and in assay [2] was under 500 nM throughout.

For `CCOc1ccc(-c2cncc(C(=O)NOCc3cc(OC)cnc3F)n2)cn1` [Compound 38, 6-(6-ethoxypyridine-3-yl)-N-((2-fluoro-5-methoxypyridine-3-yl)methoxy)pyrazine-2-carboxamide], the concentration for half-maximal inhibition (IC50) in assay [1] is under 500 nM; in assay [2], over 1000 nM.

Consider `CCOc1ccc(-c2cncc(C(=O)NOCc3cc(OC)ccc3F)n2)c(C)n1` [Compound 92], for which the half-maximal inhibitory concentration (IC50) in assay [1] is under 500 nM; in assay [2] it was over 1000 nM.

For `CCOc1ccc(-c2cncc(C(=O)NOCc3cncn3C)n2)cn1` [Compound 56], the IC50 was under 500 nM in assay [1] and 500 to 1000 nM in assay [2].

Regarding `COc1ccc(F)c(CONC(=O)c2cncc(-c3ccc(OC(C)C)cc3)n2)c1` [Compound 3, N-((2-fluoro-5-methoxybenzyl)oxy)-6-(4-isopropoxyphenyl)pyrazine-2-carboxamide], the IC50 in assay [1] and in assay [2] was under 500 nM in each case.

For `CCOc1ccc(-c2cncc(C(=O)NOCc3cc(OC)ccc3C)n2)cc1` [Compound 19, 6-(4-ethoxyphenyl)-N-((5-methoxy-2-methylbenzyl)oxy)pyrazine-2-carboxamide], the IC50 in assay [1] and in assay [2] was over 1000 nM each time.

As for `[2H]C([2H])(C)Oc1ccc(-c2cncc(C(=O)NOCc3cc(OC)ccc3F)n2)cn1` [Compound 50, 6-(6-(ethoxy-1,1-d2)pyridine-3-yl)-N-((2-fluoro-5-methoxybenzyl)oxy)pyrazine-2-carboxamide], the IC50 in assay [1] and in assay [2] was over 1000 nM each time.

Regarding `CCOc1ccc(-c2cncc(C(=O)NOCc3cc(C(C)N)ccc3F)n2)cn1` (centres unmarked) [Compound 45, N-((5-(1-aminoethyl)-2-fluorobenzyl)oxy)-6-(6-ethoxypyridine-3-yl)pyrazine-2-carboxamide], the IC50 in assay [1] and in assay [2] was over 1000 nM in each case.

Regarding `CCOc1ccc(-c2cncc(C(=O)NOCc3ccnn3C(C)C)n2)cn1` [Compound 64], the IC50 in assay [1] and in assay [2] was over 1000 nM throughout.

For the compound `CCOc1ccc(-c2cncc(C(=O)NOCc3ocnc3C)n2)cn1` [Compound 65, 6-(6-ethoxypyridine-3-yl)-N-((4-methyloxazole-5-yl)methoxy)pyrazine-2-carboxamide], the IC50 in assay [1] and in assay [2] was over 1000 nM throughout.

As for `CCOc1ccc(-c2cncc(C(=O)NOCc3cncc(OC)c3)n2)cc1` [Compound 8, 6-(4-ethoxyphenyl)-N-((5-methoxypyridine-3-yl)methoxy)pyrazine-2-carboxamide], the IC50 in assay [1] and in assay [2] was over 1000 nM each time.

As to `CCOc1ccc(-c2cnc(O)c(C(=O)NOCc3cc(OC)ccc3F)n2)cn1` [Compound 101], the IC50 in assay [1] and in assay [2] was over 1000 nM each time.

Take `CCOc1ccc(-c2cncc(C(=O)NOCc3[nH]cnc3C)n2)cn1` [Compound 59, 6-(6-ethoxypyridine-3-yl)-N-((4-methyl-1H-imidazole-5-yl)methoxy)pyrazine-2-carboxamide]: the 50% inhibitory concentration (IC50) in assay [1] and in assay [2] was over 1000 nM in each case.

`CCOc1ccc(-c2cncc(C(=O)NOCc3cc(OC)ccc3O)n2)cn1` [Compound 44, 6-(6-ethoxypyridine-3-yl)-N-((2-hydroxy-5-methoxybenzyl)oxy)pyrazine-2-carboxamide]: the IC50 in assay [1] and in assay [2] was over 1000 nM each time.

With `COc1ccc(F)c(CONC(=O)c2cncc(-c3ccc(OC(F)(F)F)nc3)n2)c1` [Compound 76], the IC50 in assay [1] is under 500 nM; in assay [2], 500 to 1000 nM.

Turning to `COc1cccc(CONC(=O)c2cncc(-c3ccc(OC(F)(F)F)nc3)n2)c1` [Compound 72], the IC50 in assay [1] and in assay [2] was under 500 nM each time.

As to `CCOc1ccc(-c2cncc(C(=O)NOCc3cncn3C(C)C)n2)cn1` [Compound 63], the concentration for half-maximal inhibition (IC50) in assay [1] and in assay [2] was over 1000 nM in each case.

As for `COc1ccc(F)c(CONC(=O)c2cncc(-c3ccc(OC)nc3)n2)c1` [Compound 30, N-((2-fluoro-5-methoxybenzyl)oxy)-6-(6-methoxypyridine-3-yl)pyrazine-2-carboxamide], the IC50 in assay [1] is under 500 nM; in assay [2], over 1000 nM.

Take `CCOc1ccc(-c2nccc(C(=O)NOCc3cc(OC)ccc3F)n2)cn1` [Compound 109]: the IC50 in assay [1] is under 500 nM; in assay [2], over 1000 nM.

Turning to `COc1ccc(F)c(CONC(=O)c2nc(-c3ccc(OC(F)F)nc3)cnc2F)c1` [Compound 123], the half-inhibitory concentration (IC50) in assay [1] and in assay [2] was over 1000 nM in each case.

As for `COc1ccc(F)c(CONC(=O)c2cccc(-c3ccc(OC(F)F)nc3)n2)c1` [Compound 115], the IC50 in assay [1] and in assay [2] was over 1000 nM each time.

`CCOc1ccc(-c2cnc(N)c(C(=O)NOCc3cc(OC)ccc3F)n2)cn1` [Compound 103]: the IC50 was 500 to 1000 nM in assay [1] and over 1000 nM in assay [2].

Regarding `COc1ccc(F)c(CONC(=O)c2ccnc(-c3ccc(OC(F)F)nc3)n2)c1` [Compound 118], the IC50 was under 500 nM in assay [1] and over 1000 nM in assay [2].

Regarding `CCOc1ccc(-c2cncc(C(=O)NOCc3ccccc3O)n2)cn1` [Compound 34, 6-(6-ethoxypyridine-3-yl)-N-((2-hydroxybenzyl)oxy)pyrazine-2-carboxamide], the half-maximal inhibitory concentration (IC50) in assay [1] and in assay [2] was over 1000 nM throughout.

Turning to `CCOc1ccc(-c2cncc(C(=O)NOCc3[nH]ccc3C#N)n2)cn1` [Compound 68], the IC50 in assay [1] and in assay [2] was over 1000 nM throughout.

As to `CCOc1ccc(-c2cncc(C(=O)NOCc3cc(OC)ccc3C3CC3)n2)cc1` [Compound 15, N-((2-cyclopropyl-5-methoxybenzyl)oxy)-6-(4-ethoxyphenyl)pyrazine-2-carboxamide], the 50% inhibitory concentration (IC50) in assay [1] and in assay [2] was under 500 nM throughout.

For the compound `CCOc1ccc(-c2cncc(C(=O)NOCc3cc(OC)ncc3F)n2)cc1` [Compound 13, 6-(4-ethoxyphenyl)-N-((5-fluoro-2-methoxypyridine-4-yl)methoxy)pyrazine-2-carboxamide], the IC50 in assay [1] was under 500 nM; in assay [2], over 1000 nM.

Consider `CCOc1ccc(-c2nc(C(=O)NOCc3cc(OC)ccc3F)cnc2F)cn1` [Compound 104], for which the IC50 in assay [1] is under 500 nM; in assay [2], over 1000 nM.

For `COc1cncc(CONC(=O)c2cncc(-c3ccc(OC(F)F)nc3)n2)c1` [Compound 82], the IC50 in assay [1] and in assay [2] was over 1000 nM in each case.

`CCOc1ccc(-c2nc(O)cc(C(=O)NOCc3cc(OC)ccc3F)n2)cc1` [Compound 112]: the concentration for half-maximal inhibition (IC50) in assay [1] is under 500 nM; in assay [2] it was over 1000 nM.

For `O=C(NOCc1cccnc1)c1cncc(-c2ccc(OC(F)(F)F)nc2)n1` [Compound 74], the IC50 was under 500 nM in assay [1] and over 1000 nM in assay [2].

On to `CCOc1ccc(-c2cncc(C(=O)NOCc3cc(OC)ccc3F)n2)c(O)c1` [Compound 85], for which the IC50 in assay [1] and in assay [2] was over 1000 nM each time.

Turning to `CCOc1ccc(-c2cncc(C(=O)NOCc3cccc(O)c3)n2)cc1` [Compound 7, 6-(4-ethoxyphenyl)-N-((3-hydroxybenzyl)oxy)pyrazine-2-carboxamide], the IC50 in assay [1] and in assay [2] was over 1000 nM in each case.

Consider `COc1ccc(F)c(CONC(=O)c2cncc(-c3ccc(OC(F)F)nc3)c2)c1` [Compound 116], for which the IC50 was under 500 nM in assay [1] and over 1000 nM in assay [2].

Regarding `CCOc1ccc(-c2cncc(C(=O)NOCc3cc(OC)cnc3F)n2)cc1` [Compound 12, 6-(4-ethoxyphenyl)-N-((2-fluoro-5-methoxypyridine-3-yl)methoxy)pyrazine-2-carboxamide], the concentration for half-maximal inhibition (IC50) in assay [1] is under 500 nM; in assay [2] it was over 1000 nM.

As to `CCOc1ccc(-c2cncc(C(=O)NOCc3ccccc3F)n2)cn1` [Compound 32, 6-(6-ethoxypyridine-3-yl)-N-((2-fluorobenzyl)oxy)pyrazine-2-carboxamide], the IC50 is 500 to 1000 nM in assay [1] and over 1000 nM in assay [2].
